Measurements reported in paper PMC3445474 (PLoS ONE, 2012).
Values joined by “and” are separate entries in the source; they are usually repeats but may differ in a detail not shown here. Equal values may be shown once. Read-outs that look alike come from different tables or passages of the source.

Columns and labels:
[1] = system: A/Udorn/72 virus; assay: microbe, parasite or virus in culture; type: cell-based, influenza A virus; settings: for activity at 0.25 µM: MDCK, read-out: Virus yield (progeny virus, % of control)
[2] = system: B/Johannesburg/99 virus; assay: Virus growth inhibition assay in MDCK cells (progeny virus by plaque assay); type: cell-based, influenza B virus; settings: for activity at 0.25 µM: read-out: Virus yield (progeny virus, % of control)
Method: The infectivity of viruses was determined by plaque assay as described below. Ten-fold serial dilutions of virus samples were made in Hanks balanced salt solution (HBSS; GIBCO, Gland Island, NY, USA) and 0.1 ml of the dilutions was inoculated on MDCK cell monolayers in 6-well tissue culture plates (Corning, Lowell, MA, USA). After adsorption of the virus onto the cells for 30 min at room temperature, 1.6 ml of Leibovitz’s L15 medium (GIBCO, Gland Island, NY, USA) containing 0.6% SeaKem ME agarose (Lonza, Basel, Switzerland), 1.5% gelatin (Nacalai, Kyoto, Japan) and 2.5 µg/ml TPCK-trypsin was added to each well and allowed to solidify. The plates were incubated for 3 days at 34°C and the number of plaques was counted. Infectivity was expressed as plaque forming units (pfu) per ml.
The inhibition of virus growth by neuraminidase inhibitors in the presence or absence of bacterial neuraminidase was assayed by measuring the released progeny virus in the culture fluid of infected cells. MDCK cells seeded on 12-well tissue culture plates were inoculated with 50 µl of virus suspension at a MOI of 0.001 or 0.01. After the adsorption for 1 h on ice, 1 ml MEM supplemented with 2.5 µg/ml TPCK-trypsin containing neuraminidase inhibitor and/or bacterial neuraminidase was added to each well. At the indicated times of incubation at 37°C in 5% CO2, culture media were harvested and the virus titers, performed in triplicate wells, were determined by plaque assay.

[3] = system: viral and bacterial neuraminidases; type: biochemical, influenza viruses, bacteria, human saliva; settings: read-out: IC50, viral, bacterial and saliva neuraminidases
[4] = system: bacterial and salivary neuraminidases (S. pneumoniae, saliva, A. ureafaciens, V. cholerae RDE); type: biochemical, human saliva
[5] = system: neuraminidase of influenza viruses (A/Udorn/72(H3N2), A/Chiba/2009(H1N1)pdm and B/Johannesburg/99); type: biochemical, influenza virus
[6] = design: method as in PMID 10858364; settings: 6 h after oral inhalation of 10 mg of zanamivir powder; cited from earlier work
[7] = Concentration of zanamivir in sputum after oral inhalation (clinical setting); type: in vivo; settings: minutes after oral inhalation of 10 mg of zanamivir powder

| Compound | Effect on influenza virus production [1] | Restoration of virus production by S. pneumoniae culture supernatant [1] | Restoration of virus production by S. pneumoniae culture supernatant ([2]; 2.5 mM DANA + S. pneumoniae culture supernatant) | Effect on influenza virus production ([2]; 2.5 mM DANA, MDCK cells, MOI 0.001, 40 hpi) | IC50 [3] [µM] | activity at 0.25 µM ([1]; Influenza A virus) [%] | activity at 0.25 µM ([1]; Streptococcus pneumoniae) [%] | Concentrations at which bacterial neuraminidases were inhibited ([4]; Figure 2A) | IC50 ([4]; range over S. pneumoniae, saliva, A. ureafaciens, V. cholerae RDE) [µM] | activity at 0.25 µM ([2]; 250 nM zanamivir + Streptococcus pneumoniae culture supernatant (6 µunits/ml neuraminidase activity), MDCK cells, MOI 0.001, 40 hpi) [%] | activity at 0.25 µM ([2]; Influenza B virus, 250 nM zanamivir, MDCK cells, MOI 0.001, 40 hpi) [%] | Potency against influenza virus NA relative to bacterial neuraminidases [5] | Concentration of zanamivir in sputum [6] | Concentration of zanamivir in sputum, calculated [7] |
| --- | --- | --- | --- | --- | --- | --- | --- | --- | --- | --- | --- | --- | --- | --- |
| CC(=O)N[C@H]1[C@H]([C@H](O)[C@H](O)CO)OC(C(=O)O)=C[C@@H]1O [DANA, 2-Deoxy-2,3-dehydro-N-acetylneuraminic acid] | inhibited influenza virus production | not restored | not restored | inhibited influenza virus production | 2 to 20 | – | – | – | – | – | – | – | – | – |
| CC(=O)N[C@H]1[C@H]([C@H](O)[C@H](O)CO)OC(C(=O)O)=C[C@@H]1N=C(N)N [zanamivir, Zanamivir] | – | – | – | – | – | 2 | 84 | above 10 µM | 100 to 5000 | 92 | 0.4 | approximately a million | ≤ 1,441 ng/ml and ≤ 4.3 µM | ≤ 5,870 ng/ml and ≤ 17.5 µM |
